# Source: paper PMC4450297, “Screening Active Compounds from Garcinia Species Native to China Reveals Novel Compounds Targeting the STAT/JAK Signaling Pathway” (BioMed Research International, 2015)
# System: A498
# Test: Cell panel screen (CellTiter-Glo)
# Type: cell-based, human
# Conditions: A498 (listed under Lung), 20 micromolar, 72 hrs
# Method in brief: (§1)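 ATCC lines in supplier media with 10% FBS, seeded and cultured overnight at 37° C., then exposed to compound at 20 μM final for 72 h. CellTiter-Glo luminescence; % growth inhibition relative to DMSO-treated controls after subtracting cell-free background.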
row,SMILES,Percent Inhibition [%]
1,CC(C)=CCc1c(O)cc2oc3cc(O)c(O)c(CC=C(C)C)c3c(=O)c2c1O [Ge9],98

# System: J82
# Test: Cell panel screen (CellTiter-Glo)
# Type: cell-based, human
# Conditions: J82 (Urinary bladder), 20 micromolar, 72 hrs
# Method in brief: as §1
row,SMILES,Percent Inhibition [%]
1,CC(C)=CCc1c(O)cc2oc3cc(O)c(O)c(CC=C(C)C)c3c(=O)c2c1O [Ge9],97

# System: HPAF-II
# Test: Cell panel screen (CellTiter-Glo)
# Type: cell-based, human
# Conditions: HPAF-II (Pancreas), 20 micromolar, 72 hrs
# Method in brief: as §1
row,SMILES,Percent Inhibition [%]
1,CC(C)=CCc1c(O)cc2oc3cc(O)c(O)c(CC=C(C)C)c3c(=O)c2c1O [Ge9],96

# System: NCI-H2405
# Test: Cell panel screen (CellTiter-Glo)
# Type: cell-based, human
# Conditions: NCI-H2405 (Lung), 20 micromolar, 72 hrs
# Method in brief: as §1
row,SMILES,Percent Inhibition [%]
1,CC(C)=CCc1c(O)cc2oc3cc(O)c(O)c(CC=C(C)C)c3c(=O)c2c1O [Ge9],96

# System: NCI-H1623
# Test: Cell panel screen (CellTiter-Glo)
# Type: cell-based, human
# Conditions: NCI-H1623 (Lung), 20 micromolar, 72 hrs
# Method in brief: as §1
row,SMILES,Percent Inhibition [%]
1,CC(C)=CCc1c(O)cc2oc3cc(O)c(O)c(CC=C(C)C)c3c(=O)c2c1O [Ge9],91

# System: A704
# Test: Cell panel screen (CellTiter-Glo)
# Type: cell-based, human
# Conditions: A704 (Kidney), 20 micromolar, 72 hrs
# Method in brief: as §1
row,SMILES,Percent Inhibition [%]
1,CC(C)=CCc1c(O)cc2oc3cc(O)c(O)c(CC=C(C)C)c3c(=O)c2c1O [Ge9],96

# System: HCC1395
# Test: Cell panel screen (CellTiter-Glo)
# Type: cell-based, human
# Conditions: HCC1395 (Breast), 20 micromolar, 72 hrs
# Method in brief: as §1
row,SMILES,Percent Inhibition [%]
1,CC(C)=CCc1c(O)cc2oc3cc(O)c(O)c(CC=C(C)C)c3c(=O)c2c1O [Ge9],98

# System: C3A
# Test: Cell panel screen (CellTiter-Glo)
# Type: cell-based, human
# Conditions: C3A (Liver), 20 micromolar, 72 hrs
# Method in brief: as §1
row,SMILES,Percent Inhibition [%]
1,CC(C)=CCc1c(O)cc2oc3cc(O)c(O)c(CC=C(C)C)c3c(=O)c2c1O [Ge9],81

# System: M059J
# Test: Cell panel screen (CellTiter-Glo)
# Type: cell-based, human
# Conditions: M059J (Brain), 20 micromolar, 72 hrs
# Method in brief: as §1
row,SMILES,Percent Inhibition [%]
1,CC(C)=CCc1c(O)cc2oc3cc(O)c(O)c(CC=C(C)C)c3c(=O)c2c1O [Ge9],-17

# System: NCI-H2347
# Test: Cell panel screen (CellTiter-Glo)
# Type: cell-based, human
# Conditions: NCI-H2347 (Lung), 20 micromolar, 72 hrs
# Method in brief: as §1
row,SMILES,Percent Inhibition [%]
1,CC(C)=CCc1c(O)cc2oc3cc(O)c(O)c(CC=C(C)C)c3c(=O)c2c1O [Ge9],89

# System: CW-2
# Test: Cell panel screen (CellTiter-Glo)
# Type: cell-based, human
# Conditions: CW-2 (Colon), 20 micromolar, 72 hrs
# Method in brief: as §1
row,SMILES,Percent Inhibition [%]
1,CC(C)=CCc1c(O)cc2oc3cc(O)c(O)c(CC=C(C)C)c3c(=O)c2c1O [Ge9],99

# System: T47D
# Test: Cell panel screen (CellTiter-Glo)
# Type: cell-based, human
# Conditions: T47D (Breast), 20 micromolar, 72 hrs
# Method in brief: as §1
row,SMILES,Percent Inhibition [%]
1,CC(C)=CCc1c(O)cc2oc3cc(O)c(O)c(CC=C(C)C)c3c(=O)c2c1O [Ge9],94

# System: CCF-STTG1
# Test: Cell panel screen (CellTiter-Glo)
# Type: cell-based, human
# Conditions: CCF-STTG1 (Brain), 20 micromolar, 72 hrs
# Method in brief: as §1
row,SMILES,Percent Inhibition [%]
1,CC(C)=CCc1c(O)cc2oc3cc(O)c(O)c(CC=C(C)C)c3c(=O)c2c1O [Ge9],99

# System: RL95
# Test: Cell panel screen (CellTiter-Glo)
# Type: cell-based, human
# Conditions: RL95 (Uterus), 20 micromolar, 72 hrs
# Method in brief: as §1
row,SMILES,Percent Inhibition [%]
1,CC(C)=CCc1c(O)cc2oc3cc(O)c(O)c(CC=C(C)C)c3c(=O)c2c1O [Ge9],98

# System: HCC1569
# Test: Cell panel screen (CellTiter-Glo)
# Type: cell-based, human
# Conditions: HCC1569 (Breast), 20 micromolar, 72 hrs
# Method in brief: as §1
row,SMILES,Percent Inhibition [%]
1,CC(C)=CCc1c(O)cc2oc3cc(O)c(O)c(CC=C(C)C)c3c(=O)c2c1O [Ge9],97

# System: HT-1197
# Test: Cell panel screen (CellTiter-Glo)
# Type: cell-based, human
# Conditions: HT-1197 (Urinary bladder), 20 micromolar, 72 hrs
# Method in brief: as §1
row,SMILES,Percent Inhibition [%]
1,CC(C)=CCc1c(O)cc2oc3cc(O)c(O)c(CC=C(C)C)c3c(=O)c2c1O [Ge9],97

# System: ZR-75-30
# Test: Cell panel screen (CellTiter-Glo)
# Type: cell-based, human
# Conditions: ZR-75-30 (Breast), 20 micromolar, 72 hrs
# Method in brief: as §1
row,SMILES,Percent Inhibition [%]
1,CC(C)=CCc1c(O)cc2oc3cc(O)c(O)c(CC=C(C)C)c3c(=O)c2c1O [Ge9],99

# System: NCI-H1694
# Test: Cell panel screen (CellTiter-Glo)
# Type: cell-based, human
# Conditions: NCI-H1694 (Lung), 20 micromolar, 72 hrs
# Method in brief: as §1
row,SMILES,Percent Inhibition [%]
1,CC(C)=CCc1c(O)cc2oc3cc(O)c(O)c(CC=C(C)C)c3c(=O)c2c1O [Ge9],99

# System: SW13
# Test: Cell panel screen (CellTiter-Glo)
# Type: cell-based, human
# Conditions: SW13 (Adrenal gland), 20 micromolar, 72 hrs
# Method in brief: as §1
row,SMILES,Percent Inhibition [%]
1,CC(C)=CCc1c(O)cc2oc3cc(O)c(O)c(CC=C(C)C)c3c(=O)c2c1O [Ge9],-3

# System: Panc 03.27
# Test: Cell panel screen (CellTiter-Glo)
# Type: cell-based, human
# Conditions: Panc 03.27 (Pancreas), 20 micromolar, 72 hrs
# Method in brief: as §1
row,SMILES,Percent Inhibition [%]
1,CC(C)=CCc1c(O)cc2oc3cc(O)c(O)c(CC=C(C)C)c3c(=O)c2c1O [Ge9],97

# System: C8166
# Test: Cell panel screen (CellTiter-Glo)
# Type: cell-based, human
# Conditions: C8166 (Leukemia), 20 micromolar, 72 hrs
# Method in brief: as §1
row,SMILES,Percent Inhibition [%]
1,CC(C)=CCc1c(O)cc2oc3cc(O)c(O)c(CC=C(C)C)c3c(=O)c2c1O [Ge9],99

# System: BT-474
# Test: Cell panel screen (CellTiter-Glo)
# Type: cell-based, human
# Conditions: BT-474 (Breast), 20 micromolar, 72 hrs
# Method in brief: as §1
row,SMILES,Percent Inhibition [%]
1,CC(C)=CCc1c(O)cc2oc3cc(O)c(O)c(CC=C(C)C)c3c(=O)c2c1O [Ge9],97

# System: NCI-H1770
# Test: Cell panel screen (CellTiter-Glo)
# Type: cell-based, human
# Conditions: NCI-H1770 (Lung), 20 micromolar, 72 hrs
# Method in brief: as §1
row,SMILES,Percent Inhibition [%]
1,CC(C)=CCc1c(O)cc2oc3cc(O)c(O)c(CC=C(C)C)c3c(=O)c2c1O [Ge9],98

# System: MSTO-211-H
# Test: Cell panel screen (CellTiter-Glo)
# Type: cell-based, human
# Conditions: MSTO-211-H (Lung), 20 micromolar, 72 hrs
# Method in brief: as §1
row,SMILES,Percent Inhibition [%]
1,CC(C)=CCc1c(O)cc2oc3cc(O)c(O)c(CC=C(C)C)c3c(=O)c2c1O [Ge9],98

# System: Colo 205
# Test: Cell panel screen (CellTiter-Glo)
# Type: cell-based, human
# Conditions: Colo 205, 20 micromolar, 72 hrs
# Method in brief: as §1
row,SMILES,Percent Inhibition [%]
1,CC(C)=CCc1c(O)cc2oc3cc(O)c(O)c(CC=C(C)C)c3c(=O)c2c1O [Ge9],98

# System: HEC-1-A
# Test: Cell panel screen (CellTiter-Glo)
# Type: cell-based, human
# Conditions: HEC-1-A (Uterus), 20 micromolar, 72 hrs
# Method in brief: as §1
row,SMILES,Percent Inhibition [%]
1,CC(C)=CCc1c(O)cc2oc3cc(O)c(O)c(CC=C(C)C)c3c(=O)c2c1O [Ge9],95

# System: Bel-7402
# Test: Cell panel screen (CellTiter-Glo)
# Type: cell-based, human
# Conditions: Bel-7402 (Liver), 20 micromolar, 72 hrs
# Method in brief: as §1
row,SMILES,Percent Inhibition [%]
1,CC(C)=CCc1c(O)cc2oc3cc(O)c(O)c(CC=C(C)C)c3c(=O)c2c1O [Ge9],99

# System: BT-549
# Test: Cell panel screen (CellTiter-Glo)
# Type: cell-based, human
# Conditions: BT-549 (Breast), 20 micromolar, 72 hrs
# Method in brief: as §1
row,SMILES,Percent Inhibition [%]
1,CC(C)=CCc1c(O)cc2oc3cc(O)c(O)c(CC=C(C)C)c3c(=O)c2c1O [Ge9],97

# System: NCI-H524
# Test: Cell panel screen (CellTiter-Glo)
# Type: cell-based, human
# Conditions: NCI-H524 (Lung), 20 micromolar, 72 hrs
# Method in brief: as §1
row,SMILES,Percent Inhibition [%]
1,CC(C)=CCc1c(O)cc2oc3cc(O)c(O)c(CC=C(C)C)c3c(=O)c2c1O [Ge9],97

# System: HGC-27
# Test: Cell panel screen (CellTiter-Glo)
# Type: cell-based, human
# Conditions: HGC-27 (Stomach), 20 micromolar, 72 hrs
# Method in brief: as §1
row,SMILES,Percent Inhibition [%]
1,CC(C)=CCc1c(O)cc2oc3cc(O)c(O)c(CC=C(C)C)c3c(=O)c2c1O [Ge9],97

# System: ChaGo-K-1
# Test: Cell panel screen (CellTiter-Glo)
# Type: cell-based, human
# Conditions: ChaGo-K-1 (Lung), 20 micromolar, 72 hrs
# Method in brief: as §1
row,SMILES,Percent Inhibition [%]
1,CC(C)=CCc1c(O)cc2oc3cc(O)c(O)c(CC=C(C)C)c3c(=O)c2c1O [Ge9],97

# System: TCCSUP
# Test: Cell panel screen (CellTiter-Glo)
# Type: cell-based, human
# Conditions: TCCSUP (Urinary bladder), 20 micromolar, 72 hrs
# Method in brief: as §1
row,SMILES,Percent Inhibition [%]
1,CC(C)=CCc1c(O)cc2oc3cc(O)c(O)c(CC=C(C)C)c3c(=O)c2c1O [Ge9],99

# System: NCI-H28
# Test: Cell panel screen (CellTiter-Glo)
# Type: cell-based, human
# Conditions: NCI-H28 (Lung), 20 micromolar, 72 hrs
# Method in brief: as §1
row,SMILES,Percent Inhibition [%]
1,CC(C)=CCc1c(O)cc2oc3cc(O)c(O)c(CC=C(C)C)c3c(=O)c2c1O [Ge9],97

# System: HCC1937
# Test: Cell panel screen (CellTiter-Glo)
# Type: cell-based, human
# Conditions: HCC1937 (Breast), 20 micromolar, 72 hrs
# Method in brief: as §1
row,SMILES,Percent Inhibition [%]
1,CC(C)=CCc1c(O)cc2oc3cc(O)c(O)c(CC=C(C)C)c3c(=O)c2c1O [Ge9],98

# System: HCC1599
# Test: Cell panel screen (CellTiter-Glo)
# Type: cell-based, human
# Conditions: HCC1599 (Breast), 20 micromolar, 72 hrs
# Method in brief: as §1
row,SMILES,Percent Inhibition [%]
1,CC(C)=CCc1c(O)cc2oc3cc(O)c(O)c(CC=C(C)C)c3c(=O)c2c1O [Ge9],95

# System: T98G
# Test: Cell panel screen (CellTiter-Glo)
# Type: cell-based, human
# Conditions: T98G (Brain), 20 micromolar, 72 hrs
# Method in brief: as §1
row,SMILES,Percent Inhibition [%]
1,CC(C)=CCc1c(O)cc2oc3cc(O)c(O)c(CC=C(C)C)c3c(=O)c2c1O [Ge9],98
